# Test results taken from patent publication US7510825B2, “Kits and methods for detection of apoptotic cells” (NST NeuroSurvival Technologies Ltd, priority 2000, dated 2009).
# Experiments:
# C6-Glioma tumor = experiment: Accumulation of DDC in apoptotic cells of glioma following irradiation; format: in vivo, mice; details: 20 h after radiation (6 gray)
# [1] = test system: epithelial cells of the small intestine; experiment: Detection by DDC of apoptosis in small intestine epithelial cells following chemotherapy; format: in vivo, mice; details: 48 hr following Cyclophosphamide and Taxol chemotherapy
# Experimental: A. Administration of DDC in-vivo: Injection of 200 μl of DDC intravenously. Following 1-2 hours, animal is sacrificed, and the desired organ is placed in a test tube or on a small plate, suitable for liquid nitrogen freezing. The plate is then covered with an aluminum foil, and transferred to liquid nitrogen. Following 5-30 minutes the specimen is being frozen to −80° C. and kept at −80° C. for at least 16 hr. B. Analysis of the Specimen: • a. Whole organ imaging Ex-vivo whole organ fluorescence imaging may be carried out on freshly excised specimen, that can be analyzed under a stereomicroscope (such as Leica MZ FL III, Leica Switzerland). […] Emitted fluorescence can be imaged using appropriate camera and software, such as a Leica DC 300F Distal camera and images can be processed and analyzed by Leica QWin Lite software. • b. […] Analysis of the tissue sections can be performed using a fluorescence microscope with a UV filter characterized by excitation at 360-370 nm (band pass) and emission at 420 nm (barrier filter) In case that staining of the examined tissue is desired, the following procedures can be applied:
# Chemotherapy treatment is not selective to tumor cells, but can also affect other organs/tissue within the body as a side effect. […] Such side effects may be detected by DDC in the small intestine, in which the epithelial cells are affected by the chemotherapy. […]
# [2] = test system: neurons of the ischemic region; experiment: Detection by DDC of permanent ischemia by MCA cauterization; format: in vivo, mice; details: DDC i.v. 22 hours from the insult; adjacent slides
# Experimental: (§1) A. Administration of DDC in-vivo: Injection of 200 μl of DDC intravenously. Following 1-2 hours, animal is sacrificed, and the desired organ is placed in a test tube or on a small plate, suitable for liquid nitrogen freezing. The plate is then covered with an aluminum foil, and transferred to liquid nitrogen. Following 5-30 minutes the specimen is being frozen to −80° C. and kept at −80° C. for at least 16 hr. B. Analysis of the Specimen: • a. Whole organ imaging Ex-vivo whole organ fluorescence imaging may be carried out on freshly excised specimen, that can be analyzed under a stereomicroscope (such as Leica MZ FL III, Leica Switzerland). DDC may be visualized using 360cx and >420cm nm filter set. Emitted fluorescence can be imaged using appropriate camera and software, such as a Leica DC 300F Distal camera and images can be processed and analyzed by Leica QWin Lite software. • b. Histological analysis, from the frozen organ or tissue, 4 μm cryosections are prepared on slides. Analysis of the tissue sections can be performed using a fluorescence microscope with a UV filter characterized by excitation at 360-370 nm (band pass) and emission at 420 nm (barrier filter) In case that staining of the examined tissue is desired, the following procedures can be applied:
# A permanent ischemia by MCA cauterization was induced in Balb/c mice (Harlan laboratories). […]
# [3] = test system: neuronal cells of the injured brain area; experiment: Detection by DDC of apoptosis following traumatic brain injury (TBI); format: in vivo, mice; details: DDC 24 hr after traumatic injury, brain excised after 2 hr
# Experimental: as §1
# TBI model was performed on Balb/C, 8-9 weeks old, according to the protocol detailed in Yun Chen et al., 1996. […]
# [4] = test system: renal tubular cells, ischemic kidney; experiment: Renal cell injury (ischemia-reperfusion) detection by DDC; format: in vivo, rats
# Experimental: as §1, with “applied: […]” for “applied:”
# [5] = test system: injured renal tissues (outer medulla); experiment: Radiocontrast-induced distal tubular necrosis model, detection by DDC; format: in vivo, rat; details: 24 h after radiocontrast insult, DDC i.v. 2 hours
# Experimental: A. Administration of DDC in-vivo: Injection of 200 μl of DDC intravenously. Following 1-2 hours, animal is sacrificed, and the desired organ is placed in a test tube or on a small plate, suitable for liquid nitrogen freezing. The plate is then covered with an aluminum foil, and transferred to liquid nitrogen. Following 5-30 minutes the specimen is being frozen to −80° C. and kept at −80° C. for at least 16 hr. B. Analysis of the Specimen: • a. Whole organ imaging Ex-vivo whole organ fluorescence imaging may be carried out on freshly excised specimen, that can be analyzed under a stereomicroscope (such as Leica MZ FL III, Leica Switzerland). DDC may be visualized using 360cx and >420cm nm filter set. Emitted fluorescence can be imaged using appropriate camera and software, such as a Leica DC 300F Distal camera and images can be processed and analyzed by Leica QWin Lite software. • b. […] Analysis of the tissue sections can be performed using a fluorescence microscope with a UV filter characterized by excitation at 360-370 nm (band pass) and emission at 420 nm (barrier filter) In case that staining of the examined tissue is desired, the following procedures can be applied:
# The selectivity of DDC uptake in injured renal tissues was evaluated in this rat model, characterized by selective medullary hypoxic tubular damage. […]
# [6] = test system: hepatocytes (liver sections); experiment: Detection by DDC in vivo of liver-cell apoptosis induced by anti-Fas antibody; parameters: species or system mice
# Experimental: Selective detection of apoptotic cells in vivo has numerous diagnostic and therapeutic clinical applications. […] Treatment of mice with anti-Fas monoclonal agonistic antibody induces apoptosis of hepatocytes, leading to animal death of within several hours. The study included intravenous administration of DDC to anti-Fas-Ab-injected mice, as well as to control, untreated animals. Fluorescence histopathological studies were then performed to evaluate the level of DDC binding.
# Five-week-old male BALB/c mice were injected intravenously with 10 μg/animal of purified hamster anti-Fas nAb. Mice were then injected intravenously with 70 mg/Kg of DDC. Injections were performed 30 minutes after antibody treatment. Control animals were injected with DDC only, without antibody administration. All animals were sacrificed three hours after administration of the antibody, followed by organ removal. Liver was sectioned transversely across the mid-portion of each lobe, dipped immediately into liquid nitrogen, and then transferred to −80° C. for 24 hours. Organs were then transferred into OCT solution, and cryosections (5 μm) were prepared. These sections were taken for fluorescent microscopy. Parallel sections were stained with hematoxylin/eosin (H&E), for simultaneous evaluation of the characteristic apoptotic morphology of the cells manifesting DDC binding.
smiles,measurement,setting,value
CN(C)c1cccc2c(S(=O)(=O)NC(CSSCC(NS(=O)(=O)c3cccc4c(N(C)C)cccc34)C(=O)O)C(=O)O)cccc12 (stereo not shown) [DDC],binding to viable tumor cells or normal brain tissue,C6-Glioma tumor,not binding
same,labeling of cells undergoing cell death within the glioma tumor,C6-Glioma tumor,specifically and selectively labeled cells undergoing cell death
same,uptake of DDC into single epithelial cells,[1],increased uptake
same,correlation of DDC staining of single neurons with H&E staining,[2],high correlation with H&E staining
same,correlation of DDC staining with H&E staining,[3],correlated with H&E staining
same,"DDC uptake, ischemic kidney compared with control kidney","[4]; 45 min renal artery clamping, DDC 20 h after reperfusion, ex-vivo whole organ fluorescence imaging",Significant increase in DDC uptake
same,DDC staining versus TUNEL staining,[4]; kidney sections after ischemia-reperfusion,Several cells were stained with DDC but were negative for TUNEL staining
same,DDC distribution pattern versus morphological findings in the contralateral kidney,[5],closely followed the characteristic striped pattern
same,binding of DDC in liver sections,"[6]; animals treated with anti-Fas Ab 10 μg/animal, 70 mg/Kg DDC i.v.","marked, specific binding"
same,binding of DDC in liver sections,"[6]; control animals, 70 mg/Kg DDC i.v. only",no significant binding
